Data set [1] relates to PC3 cells. The experiment in a line: Eicosanoid add-back to composition-treated PC3 cells. It counts as cell-based, human.
The next data set concerns colon (LS174). The experiment in a line: Effect of 13-S-HODE on proliferation, LS174. It counts as cell-based. As to conditions: Homo sapiens, read-out: IC50 (inhibition of cancer cell line growth). The protocol:
(§1) The relative ability of 13-S-HODE to inhibit prostate and colon cancer cell lines with an IC50 of about 3-4 uM. This is of importance when compared to the content of 13-S-HODE in the inventive composition. That is, as shown in Table 2 above there is sufficient 13-S-HODE within the composition to account for inhibition of cell growth. No doubt other factors within the composition also contribute to its ability to inhibit prostate and colon tumor cell growth but the ability of 13-S-HODE within the composition to be able to do this is of obvious interest.

In data set [2] the test system is lung adenocarcinoma (A549). Kind of data set: Effect of 13-S-HODE on proliferation, A549. It counts as cell-based, human.
Data set [3] concerns human tumor prostate (PC3). Kind of data set: Effect of 13-S-HODE on proliferation, PC3. It counts as cell-based. As to conditions: read-out: IC50 (inhibition of cancer cell line growth). On the procedure:
as §1

Data set [4] deals with PC3 cells. Kind of data set: Cytotoxicity in PC3 cells. It counts as cell-based, human.
The target in the next data set is T1, 12-LOX (Homo sapiens, UniProt P18054).
T1 construct: endogenous in cells; host or cells: PC3 human prostate cancer cells
T1 sequence (P18054 1-663): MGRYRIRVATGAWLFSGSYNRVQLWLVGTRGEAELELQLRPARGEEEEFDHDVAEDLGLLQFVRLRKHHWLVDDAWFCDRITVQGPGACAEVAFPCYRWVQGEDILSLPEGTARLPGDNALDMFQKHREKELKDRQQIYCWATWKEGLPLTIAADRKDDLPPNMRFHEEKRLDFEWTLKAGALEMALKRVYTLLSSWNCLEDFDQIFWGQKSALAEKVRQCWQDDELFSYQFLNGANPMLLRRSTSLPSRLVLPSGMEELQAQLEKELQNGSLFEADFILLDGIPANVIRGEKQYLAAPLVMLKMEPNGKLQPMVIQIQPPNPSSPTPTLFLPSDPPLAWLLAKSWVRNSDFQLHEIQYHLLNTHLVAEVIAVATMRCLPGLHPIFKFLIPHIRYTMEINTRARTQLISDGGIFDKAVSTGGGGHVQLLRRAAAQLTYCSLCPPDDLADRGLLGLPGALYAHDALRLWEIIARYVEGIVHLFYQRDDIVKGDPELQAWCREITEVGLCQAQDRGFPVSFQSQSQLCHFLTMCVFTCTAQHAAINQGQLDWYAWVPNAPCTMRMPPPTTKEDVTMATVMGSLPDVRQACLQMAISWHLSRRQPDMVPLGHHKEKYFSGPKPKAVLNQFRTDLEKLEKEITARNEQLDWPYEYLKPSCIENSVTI
The experiment in a line: 12-HETE levels / 12-LOX activity in PC3 cells. It counts as cell-based. More on the design: key: ↓ indicates reduction, inhibition, or downregulation; ↑ indicates enhancement, activation, or upregulation.

The test system of data set [5] is PC3 cells. Kind of data set: Cell cycle distribution by flow cytometry. Format: cell-based, human. The protocol:
The herbal product produces a clear G2/M accumulation of cells that is evident even at concentrations as low as 0.28 ul/ml. At higher concentrations, the G2/M phase is more evident as is a sub G0 peak indicative of apoptosis. Concomitant with the rise in numbers of cells in G2/M there is a progressive concentration-dependent fall of cells in the G1 portion of the cell cycle. Only 10% of control cells are routinely present at the G2/M phase, while treatment with 0.57 ul/ml of the inventive compositions results in greater than 40% of cells in a G2/M block. […] The G2/M percentage of cells is small (small dark shaded peak to the right in the figure. In the second plot (upper right) PC3 cells have been treated with 0.28 ul of the inventive compositions/ml tissue culture media. The size of the G2/M peak increases. The plot in the lower left (0.57 ul of the inventive compositions/ml) and in the lower right (1.14 ul/ml) show an increasing cell cycle block due to increased concentration of the inventive compositions.

The test system of data set [6] is PC3 cells. Kind of data set: Phosphoprotein analyses of PC3 cell lysates. It counts as cell-based, human. More on the design: key to Cyclin D1 / Cyclin D3 / Bcl-XL / Bax / Bcl-2 / pAKT / survivin / pRb content / Rb content: ↓ indicates reduction, inhibition, or downregulation; ↑ indicates enhancement, activation, or upregulation. As to conditions: nontoxic concentrations. The source says:
The data in Table 5 were derived from phosphoprotein analyses of PC3 cell lysates after treatment with nontoxic concentrations of either the inventive compositions or baicalein, a component of Scutellaria. Proteins were separated using gel electrophoresis and then the gel was probed with monoclonal antibodies to the proteins. The antibodies could detect differences in phosphorylation status of the proteins. Gels were then quantified using a densitometer. There are many similarities in the changes in phosphorylation status signaling similar up regulation or down regulation of proteins involved in cell cycle block (e.g. cyclin D1, cyclin D3 and pRB) or proteins associated with apoptosis (e.g. surviving, Bcl-XL and Bcl-2).

For data set [7], the system named is PC3 cells. The experiment in a line: Western blot of 5-LOX, 12-LOX and COX-2 protein in PC3 cells. Format: cell-based, human.
The mark [8] stands for this setting: growth inhibitory concentrations of the inventive compositions.

Molecules are shown by their SMILES.

Consider `CCCCC/C=C\C/C=C\C/C=C\C=C\[C@@H](O)CCCC(=O)O` [5-HETE], for which the “cell proliferation after adding the eicosanoid to composition-treated PC3 cells” value (“cell proliferation” for short) in the data set on PC3 cells [1] (setting [8]) is “failed to block cellular proliferation”.

`CCCCC/C=C\C[C@H](O)/C=C/C=C\C/C=C\CCCC(=O)O` [12-HETE]: the “cell proliferation” value in the data set on PC3 cells [1] (inventive compositions 1 ul/ml) was “near doubling of cell proliferation”.

For `CCCCCC(O)/C=C/C=C\CCCCCCCC(=O)O` (stereo not drawn) [13-S-HODE, 13-hydroxyoctadeca-9Z, 11E-dienoic acid], the IC50 (in the data set on colon (LS174); in [3]) was 3 to 4 µM each time. Moreover, the “inhibition of cell growth” value in [2] is recorded as “not lung adenocarcinoma (A549) cell growth”.

Regarding `O=c1cc(-c2ccccc2)oc2cc(O)c(O)c(O)c12` [Baicalein, baicalein], the Cytotoxicity entry in the data set on PC3 cells [4] is “Yes”. Further, on 12-LOX, the 12-LOX activity result is “↓”. Moreover, the Cell cycle block result in the data set with PC3 cells [5] is on record as “Yes”. In addition, in the data set with PC3 cells [6], the Bax entry is “↑”, the Bcl-2 entry is “↓”, the Bcl-XL result was “↓” and the “Cyclin D1” value is listed as “↓”. Moreover, in the data set with PC3 cells [6], the “Cyclin D3” value is “↓”, the P27 entry is “Strong ↓”, the Rb content entry is on record as “↑” and the p21 entry is given as “Strong ↓”. Besides, in the data set on PC3 cells [6], the pAKT entry is listed as “↓”, the pRb content entry was “↓” and the survivin entry is on record as “↓”.

As to `CCCCC[C@H](O)/C=C/[C@H]1[C@H](O)CC(=O)[C@@H]1C/C=C\CCCC(=O)O` [PGE2], in the data set with PC3 cells [1] (setting [8]), the “cell proliferation” value is recorded as “failed to block cellular proliferation”.

For `CC(c1cc2ccccc2s1)N(O)C(N)=O` (stereo not drawn) [Zileuton], the “cellular content of 5-LOX protein (Western blot)” value with PC3 cells [7] was “did not produce any change in relative 5-LOX enzyme content within cells”.
